# Results: the Deep4Chem optical property database
# Experiment: solvent given as SMILES
smiles,measurement,setting,value
CCCc1ccc(C#Cc2cc(C#Cc3ccc(N(C)C)cc3)c3ccc4c(C#Cc5ccc(N(C)C)cc5)cc(C#Cc5ccc(CCC)cc5)c5ccc2c3c54)cc1,emission maximum,in ClCCl,591 nm
F[B-]1(F)OC(c2ccccc2)=C(c2ccccc2)c2sc3ccccc3[n+]21,emission maximum,in C1CCOC1,446 nm
CCN(CC)c1ccc2cc(/C=C/C(=C(C#N)C#N)c3ccc(N(c4ccccc4)c4ccccc4)cc3)c(=O)oc2c1,emission maximum,in CC(C)=O,621 nm
same,emission maximum,in CCOC(C)=O,599 nm
same,emission maximum,in CN(C)C=O,636 nm
same,emission maximum,in CS(C)=O,643 nm
same,emission maximum,in Cc1ccccc1,576 nm
same,emission maximum,in ClCCl,581 nm
COc1ccc2cc(/C=C/C3=CC(c4ccccc4)=[O+][B-](F)(F)O3)ccc2c1,emission maximum,in ClCCl,566 nm
CCCCCCCCCCCCCCOc1ccc(C#Cc2cc3nc4c(OCCCCCCCCCCCC)cc5c6cc(OCCCCCCCCCCCC)c(OCCCCCCCCCCCC)cc6c6cc(OCCCCCCCCCCCC)c(OCCCCCCCCCCCC)cc6c5c4nc3cc2C#Cc2ccc(OCCCCCCCCCCCCCC)cc2)cc1,emission maximum,in ClC(Cl)Cl,663 nm
C#Cc1ccc(-c2c3nc(c(-c4ccc(C#C)cc4)c4ccc([nH]4)c(-c4cc(C(C)(C)C)cc(C(C)(C)C)c4)c4cc(c(-c5cc(C(C)(C)C)cc(C(C)(C)C)c5)c5ccc2[nH]5)C=N4)C=C3)cc1,emission maximum,in ClCCl,744 nm
COc1ccc2c(c1)C(C)(C)c1c-2c2ccc(OC)cc2c2cc(OC)ccc12,emission maximum,in C1CCCCC1,398 nm
CCC1=C(C)C2=C(C)c3cccn3[B-](F)(F)[N+]2=C1C,emission maximum,in C1CCCCC1,515 nm
same,emission maximum,in CC(C)=O,512.5 nm
same,emission maximum,in CCO,513.5 nm
same,emission maximum,in CCOC(C)=O,512.5 nm
same,emission maximum,in CO,512.5 nm
same,emission maximum,in OCC(F)(F)F,511 nm
O=c1c2cc(F)c(N3CCOCC3)cc2oc2cc(N3CCOCC3)c(F)cc12,emission maximum,in CCO,448 nm
Cn1nc(-c2ccccc2)c2nc3cc(Cl)ccc3nc21,emission maximum,in C1CCCCC1,487 nm
same,emission maximum,in C1CCOC1,519 nm
same,emission maximum,in CC#N,540 nm
CCN(CC)c1ccc2c(c1)oc(=O)c1cc3c(-c4ccccc4)nn(C)c3nc12,emission maximum,in ClCCl,506 nm
CCN(CC)c1ccc2ccc(=O)oc2c1,emission maximum,in CC(C)=O,430 nm
same,emission maximum,in CCCCCC,392 nm
same,emission maximum,in CCCCCCC,390 nm
same,emission maximum,in CCCCO,442 nm
same,emission maximum,in CCCO,442 nm
same,emission maximum,in CCO,443 nm
same,emission maximum,in CCOCC,405 nm
same,emission maximum,in CN(C)C=O,440 nm
same,emission maximum,in CO,445 nm
same,emission maximum,in Cc1ccccc1,418 nm
same,emission maximum,in ClC(Cl)(Cl)Cl,412 nm
same,emission maximum,in ClC(Cl)Cl,435 nm
same,emission maximum,in ClCCl,466 nm
same,emission maximum,in OCCO,445 nm
same,emission maximum,in c1ccccc1,395 nm
CN(C)c1ccc(/C=C/c2nc(N3CCOCC3)c3c([n+]2[O-])CCCC3)cc1,emission maximum,in ClCCl,523 nm
COc1ccc(-c2nc(-c3ccccc3O)c(-c3ccccc3O)n2-c2ccc(C)cc2)cc1,emission maximum,in C1CCOC1,357 nm
same,emission maximum,in CS(C)=O,389 nm
same,emission maximum,in ClC(Cl)Cl,410 nm
same,emission maximum,in ClCCl,347 nm
c1ccc(B2Nc3cc4c(cc3-c3sccc32)NB(c2ccccc2)c2ccsc2-4)cc1,emission maximum,in ClCCl,412 nm
C(#Cc1ccc(C#Cc2ccccc2)cc1)c1ccccc1,emission maximum,in ClC(Cl)Cl,348 nm
O=C1c2cc(-n3c4ccccc4c4ccccc43)ccc2S(=O)(=O)c2ccc(-n3c4ccccc4c4ccccc43)cc21,emission maximum,in C1CCOC1,592 nm
same,emission maximum,in CCCCCC,484 nm
same,emission maximum,in Cc1ccccc1,546 nm
same,emission maximum,in ClC(Cl)Cl,606 nm
same,emission maximum,in ClCCl,614 nm
CC1=[N+]2C(=Cc3ccc(C)n3[B-]2(F)F)C=C1c1cc2n(c1)[B-](F)(F)[N+]1=CC=CC1=C2c1c(C)cc(C)cc1C,emission maximum,in C1CCCCC1,636 nm
same,emission maximum,in CCOC(C)=O,683 nm
COc1ccc(C2CC(=O)Oc3c2c2nc4ccccc4nc2c2ccccc32)cc1 (stereo not given),emission maximum,in ClC(Cl)Cl,449 nm
COc1nc(Nc2ccc3ccc4cccc5ccc2c3c45)nc(OC)n1,emission maximum,in CC#N,390 nm
same,emission maximum,in CCCCOCCCC,388 nm
same,emission maximum,in CO,388 nm
CN(C)c1ccc2cc(C3=[O+][B-](F)(F)OC(c4ccccc4)=C3)ccc2c1,emission maximum,in C1CCOC1,643 nm
same,emission maximum,in CC#N,406 nm
same,emission maximum,in CC(C)=O,682 nm
same,emission maximum,in CS(C)=O,422 nm
same,emission maximum,in Cc1ccccc1,573 nm
same,emission maximum,in ClC(Cl)Cl,613 nm
same,emission maximum,in ClCCl,650 nm
CC1(C)c2ccccc2-c2ccc(N(c3ccccc3)c3ccc4c(c3)C(C)(C)c3cc(-c5cc6ccccc6c6c5oc5ccccc56)ccc3-4)cc21,emission maximum,in C1CCOC1,469 nm
CCN1c2ccc(/C=N/Nc3ccccn3)cc2Sc2cc(/C=N/Nc3ccccn3)ccc21,emission maximum,in C1CCOC1,495 nm
same,emission maximum,in CS(C)=O,507 nm
same,emission maximum,in Cc1ccccc1,491 nm
same,emission maximum,in ClCCl,498 nm
N#CC1=C(N)n2c(=O)c3ccccc3c(=O)n2C1c1cccs1 (stereo not given),emission maximum,in CS(C)=O,446 nm
COc1ccc(-c2cc3oc(=O)cc(C)c3cc2-c2ccc(OC)c(OC)c2)cc1OC,emission maximum,in C1CCOC1,457 nm
COc1ccc(C2=[N+]3C(=Nc4c5c6ccccc6c6ccc(C(C)(C)C)cc6c5c(-c5ccc(OC)cc5)n4[B-]3(F)F)c3c2c2cc(C(C)(C)C)ccc2c2ccccc32)cc1,emission maximum,in Cc1ccccc1,741 nm
COc1cc(OC)cc(C2=C3C(C)=C(I)C(C)=[N+]3[B-](F)(F)n3c(/C=C/c4ccsc4)c(I)c(C)c32)c1,emission maximum,in C1CCOC1,610 nm
same,emission maximum,in CS(C)=O,621 nm
same,emission maximum,in ClCCl,610 nm
COc1ccc(-c2nc(-c3ccccc3)c(-c3ccccc3)[nH]2)cc1,emission maximum,in CO,395 nm
c1ccc(N2c3ccccc3Sc3cc(-c4cccc5nc6ccccc6cc45)ccc32)cc1,emission maximum,in C1CCOC1,476 nm
same,emission maximum,in CC#N,504 nm
same,emission maximum,in CC(C)=O,495 nm
same,emission maximum,in CC(C)OC(C)C,546 nm
same,emission maximum,in CCCCCC,487 nm
same,emission maximum,in CCCCOCCCC,533 nm
same,emission maximum,in CCN(CC)CC,525 nm
same,emission maximum,in CCOC(C)=O,474 nm
same,emission maximum,in CCOCC,549 nm
same,emission maximum,in CN(C)C=O,495 nm
same,emission maximum,in ClCCl,483 nm
CC(C)(C)NC1=C2C=CC=[N+]2[B-](F)(F)n2cccc21,emission maximum,in C1CCCCC1,503 nm
same,emission maximum,in CC(C)=O,492 nm
same,emission maximum,in CCO,494 nm
same,emission maximum,in CCOC(C)=O,498 nm
same,emission maximum,in CO,491 nm
same,emission maximum,in OCC(F)(F)F,497.5 nm
Nc1ccc2c(c1)C(=O)NC2=O,emission maximum,in C1CCOC1,445 nm
same,emission maximum,in C1COCCO1,435 nm
same,emission maximum,in CC#N,458 nm
same,emission maximum,in CC(C)(C)O,501 nm
same,emission maximum,in CC(C)=O,457 nm
same,emission maximum,in CC(C)O,505 nm
same,emission maximum,in CCO,520 nm
same,emission maximum,in CCOCC,425 nm
same,emission maximum,in CN(C)C=O,470 nm
same,emission maximum,in CO,518 nm
same,emission maximum,in O,540 nm
COc1ccc(N(c2ccccc2)c2ccc(OC)cc2)cc1,emission maximum,in Cc1ccccc1,387 nm
CCC1=C(C)C2=Cc3ccccc3B(O)N2C1=O,emission maximum,in CC#N,411 nm
same,emission maximum,in CCCCCC,405 nm
same,emission maximum,in CO,411 nm
same,emission maximum,in CS(C)=O,416 nm
same,emission maximum,in ClC(Cl)Cl,418 nm
CCCCCCCCc1ccc(-c2ccc(-c3cc(-c4ccc(-c5ccc(CCCCCCCC)s5)c5nsnc45)c4ccc5c(-c6ccc(-c7ccc(CCCCCCCC)s7)c7nsnc67)cc(-c6ccc(-c7ccc(CCCCCCCC)s7)c7nsnc67)c6ccc3c4c65)c3nsnc23)s1,emission maximum,in ClC(Cl)Cl,541 nm
CC(=O)Nc1ccccc1C(=O)OC1CC(C)CCC1C(C)C (stereo not given),emission maximum,in C1CCCCC1,363 nm
same,emission maximum,in CC#N,369 nm
same,emission maximum,in CCO,370 nm
same,emission maximum,in Cc1ccccc1,368 nm
CCCCCCCCCCC1(CCCCCCCCCC)c2cc(-c3nc4ccccc4s3)ccc2-c2ccc(N3C(=O)c4ccc5c6ccc7c8c(ccc(c9ccc(c4c59)C3=O)c86)C(=O)N(c3ccc4c(c3)C(CCCCCCCCCC)(CCCCCCCCCC)c3cc(-c5nc6ccccc6s5)ccc3-4)C7=O)cc21,emission maximum,in Cc1ccccc1,536 nm
same,emission maximum,in ClCCl,533 nm
CCCCCCN1C(=O)c2cccc3cc(/N=C\c4ccc5c(c4)c4ccccc4n5CC)cc(c23)C1=O,emission maximum,in ClC(Cl)Cl,501 nm
COc1ccc(-c2nc3ccccc3nc2-c2ccc(OC)cc2)cc1,emission maximum,in C1CCOC1,432 nm
same,emission maximum,in CC#N,435 nm
same,emission maximum,in CCCCCC,423 nm
same,emission maximum,in CN(C)C=O,432 nm
same,emission maximum,in Cc1ccccc1,426 nm
same,emission maximum,in ClC(Cl)Cl,430 nm
CCN(CC)c1ccc2c(-c3ccc(S(=O)(=O)[O-])cc3S(=O)(=O)[O-])c3ccc(=[N+](CC)CC)cc-3oc2c1,emission maximum,in CC#N,573 nm
same,emission maximum,in CCO,578 nm
same,emission maximum,in CN(C)C=O,574 nm
same,emission maximum,in O,588 nm
CCOC(CN1C(=O)C2=C(c3ccsc3)N(CC(OCC)OCC)C(=O)C2=C1c1ccsc1)OCC,emission maximum,in ClC(Cl)Cl,524 nm
c1ccc(-c2ccc(-c3ccc4c(c3)CCCO4)cc2)cc1,emission maximum,in C1CCCCC1,359 nm
CC(C)(C)c1ccc2c(c1)sc1[n+]2[B-](F)(F)n2c(c3cccc4cccc2c43)=N1,emission maximum,in C1CCOC1,504 nm
same,emission maximum,in CC#N,502 nm
same,emission maximum,in CCCCCC,504 nm
same,emission maximum,in Cc1ccccc1,506 nm
same,emission maximum,in ClCCl,534 nm
Cc1ccc(/C=C(\c2ccccc2)c2nc3ccccc3s2)cc1,emission maximum,in C1CCCCC1,380 nm
same,emission maximum,in CO,410 nm
CCCCCCCCCCCCOc1cc2c3cc(OCCCCCCCCCCCC)c(OCCCCCCCCCCCC)cc3c3c(cc(OCCCCCCCCCCCC)c4nc5cc(C#Cc6ccc(OCCCC)cc6)c(C#Cc6ccc(OCCCC)cc6)cc5nc43)c2cc1OCCCCCCCCCCCC,emission maximum,in ClC(Cl)Cl,661 nm
N#Cc1cccc(C#N)c1-n1c2ccccc2c2cc(-c3ccc4c(c3)c3ccccc3n4-c3c(C#N)cccc3C#N)ccc21,emission maximum,in Cc1ccccc1,488 nm
same,emission maximum,in O=P(c1ccccc1)(c1ccccc1)c1ccccc1Oc1ccccc1P(=O)(c1ccccc1)c1ccccc1,488 nm
N#Cc1ccc(/C2=C3N=C(C(c4ccccc4)=C/3c3ccccc3)/C(c3ccc(C#N)cc3)=c3\[nH]/c(c(-c4ccccc4)c3-c3ccccc3)=C(/c3ccc(C#N)cc3)C3=N/C(=C(/c4ccc(C#N)cc4)c4[nH]c2c(-c2ccccc2)c4-c2ccccc2)C(c2ccccc2)=C3c2ccccc2)cc1,emission maximum,in ClCCl,725 nm
